Measurements from paper PMC3238229 (Genetics, Selection, Evolution : GSE, 2003).
Like-named read-outs stand apart in the source and are kept apart here. Ends that are not written are not given here.

B1: OVA336[325-336] (peptide)
peptide: QAVHAAHAEINE
B2: Biotinylated self-peptide DQ (peptide)
peptide: DVNEFRAVTPLGRPDAE
modifications: not fully specified
B3: FMD-VP4[20-34] (peptide)
peptide: SIINNYYMQQYQNSM
modifications: not fully specified
B4: OVA327[316-327] (peptide)
peptide: SSAESLKISQAV
B5: OVA339[323-339] (peptide)
peptide: ISQAVHAAHAEINEAGR
B6: OVA335[323-335] (peptide)
peptide: ISQAVHAAHAEIN
B7: Self-peptide DQ (unlabelled competitor) (peptide)
peptide: DVNEFRAVTPLGRPDAE

How the values were obtained:
[1] = test system: BoLA-DRB3*2703; assay type: binding, bovine
[2] = test system: peptide-specific T-lymphocytes from BMC of a cow homozygous for BoLA-DRB3*2703; assay type: cell-based, Holstein cow
[3] = test system: CD4+ and CD8+ peptide-specific T-lymphocytes from BMC of a cow homozygous for BoLA-DRB3*2703; assay type: cell-based, Holstein cow
[4] = test system: IFN-γ production by peptide-specific T-lymphocytes; assay type: cell-based, Holstein cow
[5] = target: BoLA-DRB3*2703 class II molecule (bovine); experiment: competitive peptide binding to pu
[6] = target: BoLA-DRB3*2703 class II molecule (bovine); experiment: binding of labelled peptide to pu
[7] = target: BoLA-DRB3*2703 class II molecule (bovine)

| Molecule | Binding affinity (designated high or low) [1] | DNA synthesis of T-cells compared to naive cell cultures (in words) [2] | IC50 [5] | further results |
| --- | --- | --- | --- | --- |
| KISQAVHAAHA [OVA332] | Low | not significantly different | – | IC50 ([1]; read-out: concentration required to inhibit BoLA class II-self-peptide binding by 50% (IC50)): > 640 µM |
| QAVHAAHAEINE [OVA336] | Low | not significantly different | – | cell divisions of CD8+lo T-lymphocytes compared to the naive lymphocyte culture [3]: more cell divisions; IFN-γ in culture supernatant compared to the naive cell culture [4]: less; IFN-γ in culture supernatant compared to the naive cell culture ([4]; 18 h): less |
| SSAESLKISQAV [OVA327] | Low | significantly lower | – | – |
| B1 | – | – | > 320 µM | – |
| B2 | – | – | – | other [6]: 58.2 pixels |
| B3 | – | – | – | IC50 [7]: 46.5 µM |
| B4 | – | – | > 320 µM | – |
| B5 | – | – | 72.2 µM | – |
| B6 | – | – | 26.9 µM | – |
| B7 | – | – | 16.1 µM | – |
